Measured values: patent US6608086B2, “Dihydropyridines and new uses thereof” (Synaptic Pharmaceutical Corporation, priority 1993, dated 2003)
Where a name gives a salt, the structure may show the parent alone.

SMILES	melting point
CC1=C(C(N)=O)C(c2ccc([N+](=O)[O-])cc2)C(C(=O)NCCN2CCC(c3ccccc3)(c3ccccc3)CC2)=C(C)N1 (stereo not drawn) (as salt: hydrochloride) (hydrate or solvate) [Example 54, 5-Carboxamide-1,4-dihydro-2,6-dimethyl-4-(4-nitrophenyl)-3-{N-[2-(4,4-diphenylpiperidin-1-yl)ethyl]}carboxamidopyridine hydrochloride hydrate]	193 to 194 °C
COC(=O)C1=C(C)N(C)C(C)=C(C(=O)OCCCN2CCC(c3ccccc3)(c3ccccc3)CC2)C1c1ccc([N+](=O)[O-])cc1.Cl.O (stereo not drawn) (hydrate or solvate) [Example 92, 1,4-Dihydro-5-methoxycarbonyl-1,2,6-trimethyl-4-(4-nitrophenyl)-3-[3-(4,4-diphenylpiperidin-1-yl)propoxy]carbonylpyridine hydrochloride hydrate]	127 to 128 °C
CCC1=C(C(N)=O)C(c2ccc([N+](=O)[O-])cc2)C(C(=O)NCCCN2CCC(c3ccc(OC)cc3)(c3ccc(OC)cc3)CC2)=C(CC)N1 (stereo not drawn) (as salt: hydrochloride) [Example 103, 5-Carboxamido-2,6-diethyl-1,4-dihydro-3-{N-[3-(4,4-bis-(4-methoxyphenyl)piperidin-1-yl)propyl]}carboxamido}-4-(4-nitrophenyl)pyridine hydrochloride]	175 °C (dec.)
COC(=O)C1=C(C)NC(C)=C(C(=O)NCCN2CCC(c3ccccc3)(c3ccccc3)CC2)C1c1ccc([N+](=O)[O-])cc1 (stereo not drawn) (as salt: hydrochloride) (hydrate or solvate) [Example 52, 1,4-Dihydro-3-methoxycarbonyl-2,6-dimethyl-4-(4-nitrophenyl)-5-{N-[2-(4,4-diphenylpiperidin-1-yl)ethyl]}carboxamidopyridine hydrochloride hemihydrate]	170 to 171 °C
COC(=O)C1=C(C)NC(C)=C(C(=O)OCCCN2CCC(c3ccccc3)CC2)C1c1ccc([N+](=O)[O-])cc1 (stereo not drawn) (as salt: hydrochloride) (hydrate or solvate) [Example 48, 1,4-Dihydro-5-methazycarbonyl-2,6-dimethyl-4-(4-nitrophenyl)-3-[3-(4-phenylpiperidin-1-yl)propoxy]}carbonylpyridine hydrochloride hydrate]	139 to 140 °C
COC(=O)C1=C(C)NC(C)=C(C(=O)N(C)CCCN2CCC(c3ccccc3)(c3ccccc3)CC2)C1c1ccc([N+](=O)[O-])cc1 (stereo not drawn) (as salt: hydrochloride) (hydrate or solvate) [Example 46, hydrochloride hemihydrate]	179 to 180 °C
CCC1=C(C(N)=O)C(c2ccc([N+](=O)[O-])cc2)C(C(=O)NCCCN2CCC(O)(c3ccccc3)CC2)=C(CC)N1 (stereo not drawn) (as salt: hydrochloride) (hydrate or solvate) [Example 100, 5-Carboxamido-2,6-diethyl-1,4-dihydro-3-{N-(3-(4-hydroxy-4-phenylpiperidin-1-yl)propyl]}carboxamido-4-(4-nitrophenyl)pyridine hydrochloride hydrate]	165 °C (dec.)
CCC1=C(C(N)=O)C(c2ccc([N+](=O)[O-])cc2)C(C(=O)NCCCN2CCC(C)(c3ccccc3)CC2)=C(CC)N1 (stereo not drawn) (as salt: hydrochloride) (hydrate or solvate) [Example 106, 5-Carboxamido-2,6-diethyl-1,4-dihydro-3-{N-[3-(4-Methyl-4-phenylpiperidin-1-yl)propyl]}carboxamido-4-(4-nitrophenyl)pyridine hydrochloride hydrate]	166 °C (dec.)
CCC1=C(C(=O)NCCCN2CCC(c3ccccc3)(c3ccccc3)CC2)C(c2ccc([N+](=O)[O-])cc2)C(C(=O)OCc2ccccc2)=C(C)N1 (stereo not drawn) (as salt: hydrochloride) (hydrate or solvate) [Example 4, 5-Benzyloxycarbonyl-2-ethyl-1,4-dihydro-6-methyl-4-(4-nitrophenyl)-3-(N-(3-(4,4-diphenylpiperidin-1-yl)propyl)carboxamido) pyridine, Hydrochloride Salt, Hydrate]	195 to 198 °C (dec.)
